According to patent publication US20080032939A1, “Iridoid-saccharide compound and method of using same” (Health Research, Inc., priority 2004, published 2008):

How the values were obtained:
colo-26 tumor cells = assay: In vitro cytotoxicity in Colo-26 tumor cells; assay type: cell-based
Description: Vehicle: 1% Tween 80 in 5% dextrose solution.
(§1) All the plant products isolated from the bark of Plumeria bicolor were insoluble in water and were dissolved in 1% Tween 80 in 5% dextrose solution. Among these analogs, plumeiride 3 produced good cytotoxicity producing a lethal dose 60% (LD60) with 200 μM, and an LD20 with 400 μM C-17 in colo-26 tumor cells. […] Plumieride 3 was then evaluated for in vivo efficacy in mice (6 mice/group) bearing colo-26 tumors at variable concentrations. […] This response was doubled to 24 days when the dose was increased to 100 mg/kg/mouse (FIG. 3).

colo-26 tumors = assay: In vivo efficacy in mice bearing colo-26 tumors
Description: as §1
(§2) On day 9, the drug administration was stopped and tumors were allowed to grow until they reached the size of approximately 350 mm^3 in volume. The drug injection was resumed (150 mg/kg/mouse) daily for another 7 days.

[1] = Preliminary screening of toxicity in treated mice; assay type: in vivo; details: mice treated with compound 3
Description: as §2

[2] = colo-26 tumor cells, vehicle 1% Tween 80 in 5% dextrose

COC(=O)C1=CO[C@@H](O[C@@H]2O[C@H](CO)[C@@H](O)[C@H](O)[C@H]2O)[C@H]2[C@@H]1C=C[C@@]21C=C([C@H](C)O)C(=O)O1 [compound 3, plumieride]
LD20 (colo-26 tumor cells; [2]): 400 µM
lethal dose 60% (LD60) (colo-26 tumor cells; [2]): 200 µM
relative effectiveness among the components isolated from the bark (colo-26 tumor cells; compared with triterpenoids 1, 2): most effective
tumor volume after injections were re-initiated (colo-26 tumors; 150 mg/kg/mouse daily for another 7 days, resumed at tumor size approximately 350 mm^3): regressed to almost half the size
tumor inhibition (colo-26 tumors; 150 mg/kg/mouse, as long as the drug was injected (until day 9)): complete tumor inhibition
time with no increase in tumor volume (colo-26 tumors; dose 100 mg/kg/mouse, mice bearing colo-26 tumors): 24 days
time with no increase in tumor volume (colo-26 tumors; injected daily with 50 mg/kg/mouse, mice bearing colo-26 tumors): 12 days
tumor growth delay versus untreated control mice (colo-26 tumors; mice bearing colo-26 tumors, variable concentrations): significant tumor growth delay
visible toxicity, body weight, daily habits [1]: no visible toxicity as well as a change in body weight or daily habits
